According to publication PMC6272715, “Discovery of Novel Small Molecule Anti-HCV Agents via the CypA Inhibitory Mechanism Using O-Acylation-Directed Lead Optimization” (Molecules, 2015):
Values joined by “and” are separate entries in the source; they are usually repeats but may differ in a detail not shown here. Identical values can stand only once. Like-named read-outs stand apart in the source and are kept apart here.

Tests used:
in vivo = details: male, SD, rat, iv, i.v. 2 mg 25/kg; for AUC(0-inf): AUC0-∞
[1] = rats, intravenous injection of 25 (2 mg∙kg^−1)
HCV JFH1-2a replicon = assay: HCV JFH1-2a subgenomic replicon assay (Renilla luciferase, Huh 7.5.1 replicon cells); type: cell-based; details: Hepatitis C virus, Table 4, read-out: Anti-HCV Activity EC50 ± SD Replicon Assay JFH1-2a
CypA = CypA (Homo sapiens, UniProt P62937); assay: CypA enzyme inhibition assay (chymotrypsin-coupled PPIase assay); type: biochemical; details: mean ± SD of five independent experiments
Sequence of CypA (P62937 whole entry): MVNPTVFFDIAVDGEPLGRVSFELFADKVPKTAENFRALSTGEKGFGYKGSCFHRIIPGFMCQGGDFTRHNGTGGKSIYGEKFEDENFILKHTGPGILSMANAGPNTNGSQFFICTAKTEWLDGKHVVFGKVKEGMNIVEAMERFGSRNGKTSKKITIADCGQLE
Protocol: The PPIase activity of CypA was conducted in a coupled assay with chymotrypsin using the synthetic tetrapeptide N-succinyl-Ala-Ala-Pro-Phe-p-nitroanilide (Sigma, Shanghai, China) as described in [34] with small modifications. The assay buffer (20 mM Tris-HCl, 50 mM NaCl, pH 7.8) and CypA were precooled at 4 °C and mixed with 0.4 mg∙mL^−1 chymotrypsin (20 mg∙mL^−1 in 1 mM HCl). The reaction was initiated by adding peptide substrate (2 mg∙mL^−1 in 500 mM LiCl in tetrahydrofuran (THF)). […] Absorbance readings were collected every 0.1 s and the temperature was controlled at 4 °C during the assay. The progress curves were analyzed by nonlinear least-squares fit. The inhibition assays of compounds were performed in the same manner as above-mentioned. […] of test compounds in DMSO, at various concentrations, was added to the CypA solution in the assay buffer. After being preincubated for 1 h at 4 °C, the assay was started by the addition of chymotrypsin and the substrate. To calculate the half-maximal inhibitory concentration (IC50), a percent of the remaining PPIase activity was plotted against the common logarithm of the compound concentration, and the data were fitted using the sigmoidal fitting model of Origin 7.0 software.

JFH1-2a (S282T) virus = assay: HCV virus assay, mutant JFH1-2a (S282T) virus strain; type: cell-based; details: Hepatitis C virus, read-out: Anti-HCV Activity (Virus Assay) EC50 ± SD JFH1-2a (S282T)
[2] = Cell proliferation (cytotoxicity) assay, WST-1; type: cell-based; details: human, Huh 7.5.1 cells
Protocol: Cell Proliferation Assay: Huh 7.5.1 cells were seeded at a density of 2 × 10^4 cells per well in 96-well plates overnight. The cells were respectively incubated with serial diluted compounds for 48 h, and the viability of Huh7.5.1 cells was determined in 96-well tissue culture plates using cell proliferation reagent WST-1 (Roche, Basel, Switzerland). The absorbance (OD450 /reference OD630) was measured to detect the cytotoxicity of compounds, according to the manufacturer’s protocol of Cell Proliferation Reagent WST-1.

[3] = PBS pH 7.4, 37 °C
[4] = tested on: JFH1-2a virus (wild type); assay: HCV virus assay, JFH1-2a wild type, Huh 7.5.1 cells; details: Hepatitis C virus
HCV H77-1a replicon = assay: HCV H77-1a subgenomic replicon assay; type: cell-based; details: Hepatitis C virus; Table 4; read-out: Anti-HCV Activity EC50 ± SD Replicon Assay H77-1a
[5] = SD rats, Mean ± SD (Rat 1 and 3)

**Q.** For `CCCCCCCC(=O)Oc1cccc(O)c1C(=O)NC(=O)NC1c2ccccc2-c2ccccc21` [Compound 25, 1-(2-Hydroxy-6-n-Octanoyloxybenzoyl)-3-(9H-fluoren-9-yl)-urea], which AUC(0-inf) (in vivo; SD rat, Rat 1) is on record?
**A.** 5.66 ng·h/mL

**Q.** What about the AUC(0-inf) (in vivo; SD rat, Rat 3) of the same compound?
**A.** 5.3 ng·h/mL

**Q.** And the AUC(0-inf) (in vivo; [5])?
**A.** 5.48 ± 0.25 ng·h/mL

**Q.** What about the Cmax (in vivo; SD rat, Rat 1) of the same compound?
**A.** 13.4 ng/mL

**Q.** What about the Cmax (in vivo; SD rat, Rat 3) of the same compound?
**A.** 27.5 ng/mL

**Q.** What about the Cmax (in vivo; [5]) of the same compound?
**A.** 20.5 ± 9.99 ng/mL

**Q.** What about the MRT (in vivo; SD rat, Rat 1) of the same compound?
**A.** 2.42 h

**Q.** What about the MRT (in vivo; SD rat, Rat 3) of the same compound?
**A.** 0.21 h

**Q.** And the MRT (in vivo; [5])?
**A.** 1.3 ± 1.6 h

**Q.** What about the half-life (in vivo; t1/2, SD rat, Rat 1) of the same compound?
**A.** 5.4 h

**Q.** And the half-life (in vivo; t1/2, SD rat, Rat 3)?
**A.** 0.12 h

**Q.** And the half-life (in vivo; t1/2, SD rats, Mean ± SD (Rat 1 and 3))?
**A.** 2.76 ± 3.73 h

**Q.** What about the melting point of the same compound?
**A.** 184 to 189 °C

**Q.** What about the “plasma concentration after 5 min (mean ± SD)” value [1] of the same compound?
**A.** 20.47 ± 9.99 ng/mL

**Q.** What about the EC50 (HCV JFH1-2a replicon) of the same compound?
**A.** 450 ± 80 nM

**Q.** What about the IC50 (CypA) of the same compound?
**A.** > 5000 nM

**Q.** What about the EC50 (JFH1-2a (S282T) virus) of the same compound?
**A.** 290 ± 70 nM

**Q.** And the CC50 at 48 h ([2]; Table 4, 48 h)?
**A.** > 16000 nM

**Q.** And the CC50 at 48 h ([2]; Table 5)?
**A.** > 20000 nM

**Q.** What about the “25 Content” value ([3]; 0 h) of the same compound?
**A.** 100%

**Q.** What about the “25 Content” value ([3]; 0.5 h) of the same compound?
**A.** 99.79%

**Q.** What about the “25 Content” value ([3]; 1.0 h) of the same compound?
**A.** 100.13%

**Q.** And the “25 Content” value ([3]; 1.5 h)?
**A.** 99.76%

**Q.** And the “25 Content” value ([3]; 2.0 h)?
**A.** 100.72%

**Q.** And the “25 Content” value ([3]; 3.0 h)?
**A.** 100.67%

**Q.** And the “25 Content” value ([3]; 3.5 h)?
**A.** 100.93%

**Q.** And the “25 Content” value ([3]; 4.0 h)?
**A.** 100.74%

**Q.** And the “25 Content” value ([3]; 5.0 h)?
**A.** 100.21%

**Q.** And the “25 Content” value ([3]; 6.0 h)?
**A.** 100.24%

**Q.** What about the “25 Content” value ([3]; 7.0 h) of the same compound?
**A.** 100.34%

**Q.** And the “25 Content” value ([3]; 8.0 h)?
**A.** 100.30%

**Q.** And the “25 Content” value ([3]; 9.0 h)?
**A.** 99.29%

**Q.** And the “25 Content” value ([3]; 10.0 h)?
**A.** 98.88%

**Q.** And the “25 Content” value ([3]; 11.0 h)?
**A.** 98.43%

**Q.** And the “25 Content” value ([3]; 12.0 h)?
**A.** 98.65% and 98.6%

**Q.** And the EC50 ([4]; Huh-7.5.1, read-out: Anti-HCV Activity (Virus Assay) EC50 ± SD JFH1-2a (Wild Type))?
**A.** 270 ± 90 nM

**Q.** What about the EC50 ([4]; Huh-7.5.1, read-out: Anti-HCV Activity EC50 ± SD Virus Assay JFH1-2a) of the same compound?
**A.** 190 ± 80 nM

**Q.** And the EC50 (HCV H77-1a replicon)?
**A.** 850 ± 210 nM
